# Assays:
# [1] = biological target: T1, Peroxisome proliferator-activated receptor alpha (Homo sapiens, UniProt Q07869); assay: (§1) In vitro transcription activation on human peroxisome proliferator activated receptor-alpha (PPAR alpha)
# T1 sequence (Q07869 whole entry): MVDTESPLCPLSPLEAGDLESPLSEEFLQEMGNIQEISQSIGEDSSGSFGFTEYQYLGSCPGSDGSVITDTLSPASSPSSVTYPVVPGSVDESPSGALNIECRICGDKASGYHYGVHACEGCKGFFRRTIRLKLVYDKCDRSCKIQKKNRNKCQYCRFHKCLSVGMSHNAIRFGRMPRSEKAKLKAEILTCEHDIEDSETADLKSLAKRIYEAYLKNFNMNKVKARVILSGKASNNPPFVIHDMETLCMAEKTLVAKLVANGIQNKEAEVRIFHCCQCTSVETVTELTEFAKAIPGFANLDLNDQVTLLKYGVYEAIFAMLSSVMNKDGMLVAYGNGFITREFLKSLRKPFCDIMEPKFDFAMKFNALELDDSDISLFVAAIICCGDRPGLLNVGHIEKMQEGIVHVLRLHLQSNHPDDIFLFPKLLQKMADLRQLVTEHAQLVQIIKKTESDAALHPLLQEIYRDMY
# [2] = biological target: T2, Peroxisome proliferator-activated receptor alpha (Homo sapiens) (UniProt Q07869); assay: as §1
# T2 sequence (whole entry): T1 sequence (Q07869 whole entry)
# [3] = biological target: T3, Peroxisome proliferator-activated receptor gamma (Homo sapiens, UniProt P37231); assay: In vitro transcription activation on human peroxisome proliferator activated receptor-gamma (PPAR gamma)
# T3 sequence (P37231 whole entry): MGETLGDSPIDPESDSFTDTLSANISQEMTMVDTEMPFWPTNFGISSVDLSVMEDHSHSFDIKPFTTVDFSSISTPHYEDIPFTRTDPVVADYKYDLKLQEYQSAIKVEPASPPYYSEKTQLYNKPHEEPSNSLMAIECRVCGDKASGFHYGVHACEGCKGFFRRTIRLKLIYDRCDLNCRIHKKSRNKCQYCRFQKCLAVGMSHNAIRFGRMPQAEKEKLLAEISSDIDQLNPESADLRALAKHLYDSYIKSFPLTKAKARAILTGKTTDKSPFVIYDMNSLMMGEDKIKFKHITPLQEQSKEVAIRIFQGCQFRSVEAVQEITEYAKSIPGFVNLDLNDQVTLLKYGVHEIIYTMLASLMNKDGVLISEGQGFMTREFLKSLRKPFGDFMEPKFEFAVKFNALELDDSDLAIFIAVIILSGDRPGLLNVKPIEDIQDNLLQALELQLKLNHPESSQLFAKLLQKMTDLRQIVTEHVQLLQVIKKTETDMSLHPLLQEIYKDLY
# [4] = biological target: T4, Peroxisome proliferator-activated receptor delta (Homo sapiens, UniProt Q03181); assay: In vitro transcription activation on human peroxisome proliferator activated receptor-delta (PPAR delta)
# T4 sequence (Q03181 whole entry): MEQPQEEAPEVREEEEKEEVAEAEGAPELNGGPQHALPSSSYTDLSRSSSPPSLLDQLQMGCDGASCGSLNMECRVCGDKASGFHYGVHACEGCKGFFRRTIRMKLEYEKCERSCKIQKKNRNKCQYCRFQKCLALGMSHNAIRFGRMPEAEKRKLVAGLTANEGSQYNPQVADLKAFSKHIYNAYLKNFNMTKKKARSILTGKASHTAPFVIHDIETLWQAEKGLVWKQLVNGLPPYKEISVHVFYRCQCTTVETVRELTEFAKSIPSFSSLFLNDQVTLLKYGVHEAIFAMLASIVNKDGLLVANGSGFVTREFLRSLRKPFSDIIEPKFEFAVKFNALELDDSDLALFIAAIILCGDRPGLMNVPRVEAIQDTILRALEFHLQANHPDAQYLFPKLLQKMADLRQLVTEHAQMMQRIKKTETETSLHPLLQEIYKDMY
# Mus musculus [5] = assay: In vivo effect on blood glucose level in mice at a dose of 10 mg/kg by oral administration after two week; assay type: functional
# Mus musculus [6] = assay: In vivo effect on blood glucose level in mice at a dose of 30 mg/kg by oral administration after two week; assay type: functional
# [7] = biological target: T1, Peroxisome proliferator-activated receptor alpha; assay: In vitro transcription activation on human peroxisome proliferator activated receptor-alpha (PPAR alpha); Inactive
# [8] = biological target: T4, Peroxisome proliferator-activated receptor delta; assay: In vitro transcription activation on human peroxisome proliferator activated receptor-delta (PPAR delta); Inactive
# [9] = biological target: T3, Peroxisome proliferator-activated receptor gamma
# [10] = biological target: T4, Peroxisome proliferator-activated receptor delta; assay: In vitro transcriptional activation by human peroxisome proliferator activated receptor-delta (PPAR delta; Inactive
# Mus musculus [11] = assay: In vivo effect on blood glucose level in mice at the dose of 5 mg/kg by oral administration after two week; assay type: functional
# Mus musculus [12] = assay: In vivo effect on blood glucose level in mice at a dose of 20 mg/kg by oral administration after two week; assay type: functional
EC50 [1] [nM],SMILES,Max response [2] [%],EC50 [3] [nM],EC50 [4] [nM],EC50 [7],EC50 [8],other results
170,COC(=O)C(Cc1ccc(OCCOc2ccc3c(c2)NCCC3)cc1)C(=O)OC,215,3160,3160,,,
,COC(=O)C(Cc1ccc(OCCOc2ccc3c(c2)CCCC3)cc1)C(=O)O (configuration not stated),,690,2450,Not Active,,
90,COC(=O)C(Cc1ccc(OCCOc2ccc3c(c2)NCCC3)cc1)C(=O)O (configuration not stated),207,3800,3090,,,
140,NC(=O)C(Cc1ccc(OCCOc2ccc3c(c2)NCCC3)cc1)C(=O)O (configuration not stated),210,2880,3620,,,
,CC1(C)CCC(C)(C)c2cc(OCCOc3ccc(CC(C(=O)O)C(=O)O)cc3)ccc21,,2050,,Not Active,Not Active,
,O=C(O)C(Cc1ccc(OCCOc2ccc3ccccc3c2)cc1)C(=O)O,,,,Not Active,,EC50 [9]: Not Active; EC50 [10]: Not Active
44,COC(=O)C(Cc1ccc(OCCOc2ccc3ccccc3c2)cc1)C(=O)O (configuration not stated),264,1120,1050,,,
,CCCCCCCCCCCCCCC(Br)C(=O)O (configuration not stated),,,3720,,,
,Cc1cccc(Nc2cc(Cl)nc(SCC(=O)O)n2)c1C [PIRINIXIC ACID],100,,,,,EC50 [9]: Not Active
,CN(CCOc1ccc(CC2SC(=O)NC2=O)cc1)c1ccccn1 (configuration not stated) [ROSIGLITAZONE],,,,,,Reduction (Mus musculus [11]): 62.96%
,O=C(O)C(Cc1ccc(OCCOc2ccc3c(c2)CCCC3)cc1)C(=O)O,,2110,4680,Not Active,,
,COC(=O)C(Cc1ccc(OCCOc2ccc3c(c2)C(C)(C)CCC3(C)C)cc1)C(=O)OC,,150,,Not Active,Not Active,
,COC(=O)C(Cc1ccc(OCCOc2ccc3c(c2)C(C)(C)CCC3(C)C)cc1)C(=O)O (configuration not stated),,90,,Not Active,Not Active,
,Cc1oc(-c2ccccc2)nc1CCOc1ccc(CC2C(=O)NOC2=O)cc1 (configuration not stated) [REGLITAZAR],,,,,Not Active,
,O=C(O)C(Cc1ccc(OCCOc2ccc3c(c2)NCCC3)cc1)C(=O)O,,,,Not Active,Not Active,EC50 [9]: Not Active
,COC(=O)C(Cc1ccc(OCCOc2ccc3c(c2)CCCC3)cc1)C(N)=O (configuration not stated),,3430,,Not Active,Not Active,
,COC(=O)C(Cc1ccc(OCCOc2ccc3c(c2)C(C)(C)CCC3(C)C)cc1)C(N)=O (configuration not stated),,830,,Not Active,Not Active,
,CC1(C)CCC(C)(C)c2cc(OCCOc3ccc(CC(C(N)=O)C(=O)O)cc3)ccc21 (configuration not stated),,,,Not Active,Not Active,EC50 [9]: Not Active

SMILES,EC50 [1] [nM],Max response [2] [%],EC50 [3] [nM],EC50 [4] [nM],EC50 [7],EC50 [8],other results
COC(=O)C(Cc1ccc(OCCOc2ccc3ccccc3c2)cc1)C(=O)OC,70,264,530,1270,,,Reduction (Mus musculus [5]): 35.08%; Reduction (Mus musculus [6]): 46.76%
COC(=O)C(Cc1ccc(OCCOc2ccc3c(c2)CCCC3)cc1)C(=O)OC,30,210,1500,3310,,,Reduction (Mus musculus [6]): 38.15%
NC(=O)C(Cc1ccc(OCCOc2ccc3ccccc3c2)cc1)C(=O)O (configuration not stated),250,213,3020,2630,,,Reduction (Mus musculus [12]): 42.22%

# — ChEMBL document CHEMBL1147472, “Design, synthesis, and evaluation of a new class of noncyclic 1,3-dicarbonyl compounds as PPARalpha selective activators” (Bioorg Med Chem Lett, 2004)
